From US5489600A, “Piperidyl amides, sulfonamides and sulfoxamides as inhibitors of cholesterol biosynthesis” (priority 1994, dated 1996)

The compounds below were run against T1, oxidosqualene cyclase (Rattus norvegicus, UniProt P48450) (assay: Inhibition of Purified Oxidosqualene Cyclase (I10)). Settings: 10 μM test compound; oxidosqualene cyclase purified from rat liver microsomes; [3H]squalene monoepoxide 10 μM; pH 7.4.
T1 construct: Oxidosqualene cyclase is purified from rat liver microsomes; from tissue; host or cells: rat liver microsomes (lauryl maltoside solubilization, FPLC anion-exchange chromatography)
T1 sequence (P48450 1-733): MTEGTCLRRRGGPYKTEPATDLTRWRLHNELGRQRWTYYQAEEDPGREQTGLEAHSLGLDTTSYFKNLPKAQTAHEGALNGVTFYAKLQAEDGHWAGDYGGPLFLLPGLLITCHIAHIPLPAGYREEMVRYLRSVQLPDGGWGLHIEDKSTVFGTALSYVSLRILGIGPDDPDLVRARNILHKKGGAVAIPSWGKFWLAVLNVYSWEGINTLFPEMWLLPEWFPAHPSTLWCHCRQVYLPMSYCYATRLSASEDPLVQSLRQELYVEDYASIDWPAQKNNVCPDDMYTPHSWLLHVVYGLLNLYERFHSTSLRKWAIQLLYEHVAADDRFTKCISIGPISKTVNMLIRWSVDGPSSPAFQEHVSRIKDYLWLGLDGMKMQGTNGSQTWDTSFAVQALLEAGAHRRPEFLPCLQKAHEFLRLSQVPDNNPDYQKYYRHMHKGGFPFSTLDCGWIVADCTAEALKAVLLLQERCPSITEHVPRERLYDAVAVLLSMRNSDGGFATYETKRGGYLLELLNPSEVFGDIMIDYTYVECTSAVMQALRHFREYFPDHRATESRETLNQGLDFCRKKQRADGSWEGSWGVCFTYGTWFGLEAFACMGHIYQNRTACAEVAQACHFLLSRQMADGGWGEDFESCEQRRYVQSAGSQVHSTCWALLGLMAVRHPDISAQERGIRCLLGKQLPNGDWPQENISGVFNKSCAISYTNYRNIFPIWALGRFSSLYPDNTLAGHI
Type: biochemical
Description: Inhibition of Purified Oxidosqualene Cycloase (I10)
Oxidosqualene cyclase is purified from rat liver microsomes by the sequential methods of: 1) solubilization with the detergent lauryl maltoside and 2) FPLC anion-exchange chromatography. Compounds are tested to determine their ability to inhibit the conversion of squalene monoepoxide to lanosterol catalyzed by the purified oxidosqualene cyclase. The reaction mixture (final volume, 200 μL), contains potassium phosphate buffer (50 mM, pH 7.4), Na2 EDTA (500 μM), Tween (80 (0.1%), [3H]squalene monoepoxide (10 μM of the racemic mixture, 50 Ci/mol), test compound (10 μM) and purified oxidosqualene cyclase (50 μg). The reagents, prior to mixing are equilibrated at 37° C. for 10 minutes. The reaction is initiated by adding enzyme. The reaction is terminated by the addition of 5 mL of CHCl3 /MeOH (2:1, v/v), 0.8 mL of water and 10 μg each of squalene monoepoxide, squalene diepoxide, lanosterol and cholesterol. The organic layer is isolated and evaporated to dryness under nitrogen. The residue is dissolved in 200 μL of hexane/ethanol (99:1) and the sample is subjected to HPLC separation using a C18 reverse phase column eluted isocratically with 3.6% water in methanol. Radioactivity is quantitated using an in-line scintillation counter. Oxidosqualene cyclase activity is expressed as the percent inhibition of oxidosqualene cyclase activity at 10 μM test compound (I10 values).
Table 1 provides a summary of the testing data for the inhibition of oxidosqualene cyclase by compounds of formula (I) and formula (II).

inhibition at 10 µM | Compound
76% | CC(C)CCSCCCCC(=O)N1CCC(C(C)CO)CC1 (centres unmarked) [100,759, 1-(1-Oxopentyl-5-isopentylsulfide)-4-[(2-hydroxy-1-methyl)ethyl]piperidine]
38% | CC(C)CCSCCCCC(=O)N1CCCCC1 [101,140, 1-(1-Oxopentyl-5-isopentylsulfide)piperidine]
82% | CC(CO)C1CCN(C(=O)CCCCSc2ccccc2)CC1 (centres unmarked) [101,550, 1-(1-Oxopentyl-5-phenylsulfide)-4-[(2-hydroxy-1-methyl)ethyl]piperidine]
46% | CCCCCCCCCCCC[S+]([O-])N1CCC(C(C)CO)CC1 (centres unmarked) [101,915, 1-(1-Sulfoxododecyl)-4-[(2-hydroxy-1-methyl)ethyl]piperidine]
29% | CCCCCCCCCCCCS(=O)(=O)N1CCC(C(C)CO)CC1 (centres unmarked) [102,055, 1-(1-Sulfonododecyl)-4[(2-hydroxy-1-methyl)ethyl]piperidine]
